ChEMBL document CHEMBL1201862, “PubChem BioAssay data set” (2004)
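Method: 48-hour compound exposure of cells in 96-well plates, five concentrations, linear interpolation of endpoints. Here, GI50 denotes the concentration required for 50% inhibition of growth.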 Calls of active or inactive are those of the source. Rule as the data show it: active = GI50 up to about 1.1 µM and inactive = higher.

How the values were obtained:
Test in all cases: NCI anticancer screen, dose series, 48 h
UACC-257 = system: UACC-257
SR = system: SR
NCI-H226 = system: NCI-H226
SK-MEL-5 = system: SK-MEL-5
UACC-62 = system: UACC-62
IGROV-1 = system: IGROV-1
786-0 = system: 786-0
OVCAR-8 = system: OVCAR-8
OVCAR-3 = system: OVCAR-3
HL-60 = system: HL-60
ACHN = system: ACHN
Malme-3M = system: Malme-3M
OVCAR-4 = system: OVCAR-4
CAKI-1 = system: CAKI-1
NCI-H23 = system: NCI-H23
NCI-H522 = system: NCI-H522

Measured: GI50

O=C(Nc1ccccc1)N1C(c2ccccc2)=N[C@@H](c2ccccc2)[C@@H]1c1ccccc1
inactive: UACC-257 19 µM | SR 14.8 µM | NCI-H226 23.3 µM | SK-MEL-5 13.6 µM | UACC-62 19.9 µM | IGROV-1 22.4 µM | 786-0 17.6 µM | OVCAR-8 22.8 µM | OVCAR-3 22.9 µM | HL-60 19 µM | ACHN 15.3 µM | Malme-3M 17.5 µM | OVCAR-4 17.6 µM | CAKI-1 21.5 µM | NCI-H23 23.7 µM

On1c(-c2ccccc2)c(-c2c(-c3ccccc3)n(O)c3ccccc23)c2ccccc21
inactive: UACC-257 26.5 µM | NCI-H226 17.7 µM | SK-MEL-5 21.9 µM | UACC-62 55.3 µM | 786-0 14.9 µM | NCI-H522 22.8 µM | OVCAR-8 26.1 µM | OVCAR-3 38 µM | HL-60 32.7 µM | ACHN 29.9 µM | Malme-3M 32.3 µM | OVCAR-4 52.1 µM | NCI-H23 27.3 µM

O=P(Oc1ccc2ccccc2c1)(N1CC1)N1CC1
inactive: UACC-257 38.2 µM | SR 3.13 µM | NCI-H226 16.2 µM | UACC-62 2.88 µM | IGROV-1 83.4 µM | 786-0 4.84 µM | NCI-H522 11 µM | OVCAR-8 59.2 µM | OVCAR-3 65.8 µM | HL-60 26.4 µM | ACHN 2.61 µM | Malme-3M 10.7 µM | OVCAR-4 89.1 µM | NCI-H23 4.43 µM

Cc1ccccc1C(CCCO)C(=O)O (centres undefined)
inactive: UACC-257 > 100 µM | SK-MEL-5 > 100 µM | UACC-62 > 100 µM | IGROV-1 > 100 µM | 786-0 > 100 µM | NCI-H522 > 100 µM | OVCAR-8 > 100 µM | OVCAR-3 > 100 µM | HL-60 > 100 µM | ACHN > 100 µM | Malme-3M > 100 µM | OVCAR-4 > 100 µM | CAKI-1 > 100 µM | NCI-H23 > 100 µM

CN(C)CC/C(=N\Nc1ccc([N+](=O)[O-])cc1)c1ccccc1
inactive: UACC-257 16.8 µM | SR 3.5 µM | SK-MEL-5 14.5 µM | UACC-62 12.9 µM | IGROV-1 11 µM | 786-0 12.6 µM | NCI-H522 13.9 µM | OVCAR-8 14 µM | OVCAR-3 16.3 µM | HL-60 3.61 µM | ACHN 2.61 µM | Malme-3M 19.4 µM | OVCAR-4 18.3 µM | NCI-H23 13.3 µM

N#Cc1c2c(c(N=P(c3ccccc3)(c3ccccc3)c3ccccc3)n3c1nc1ccccc13)CCCC2
inactive: UACC-257 15.5 µM | NCI-H226 3.68 µM | SK-MEL-5 10.8 µM | UACC-62 12.1 µM | IGROV-1 29.2 µM | 786-0 44 µM | NCI-H522 14.3 µM | OVCAR-8 13 µM | OVCAR-3 15.3 µM | HL-60 3.86 µM | ACHN 15.7 µM | Malme-3M 36 µM | OVCAR-4 23.4 µM | CAKI-1 30 µM

C[C@]12CC[C@H](O)CC1=CC[C@@H]1C2CC[C@]2(C)Nc3c(cnn3-c3ccccc3)CC12 (some centres undefined)
inactive: UACC-257 3.78 µM | NCI-H226 8.57 µM | SK-MEL-5 3.24 µM | UACC-62 4.14 µM | IGROV-1 7.05 µM | 786-0 1.56 µM | OVCAR-8 6.87 µM | OVCAR-3 5.9 µM | HL-60 1.77 µM | ACHN 3.26 µM | Malme-3M 4.35 µM | OVCAR-4 7.23 µM | CAKI-1 2.96 µM | NCI-H23 3.88 µM

CCCCCC/C=C/CCCCCCCc1cccc(O)c1C(=O)O
inactive: UACC-257 49.4 µM | SR > 100 µM | UACC-62 36.4 µM | IGROV-1 44.9 µM | 786-0 > 100 µM | NCI-H522 52.8 µM | OVCAR-8 50.8 µM | OVCAR-3 42.3 µM | HL-60 > 100 µM | ACHN 85.5 µM | Malme-3M > 100 µM | OVCAR-4 > 100 µM | CAKI-1 > 100 µM | NCI-H23 38.5 µM

COC(=O)N/N=C(\Cc1ccccc1)CN(C)C
inactive: UACC-257 > 100 µM | SK-MEL-5 > 100 µM | UACC-62 > 100 µM | IGROV-1 > 100 µM | 786-0 > 100 µM | NCI-H522 > 100 µM | OVCAR-8 > 100 µM | OVCAR-3 > 100 µM | HL-60 > 100 µM | ACHN > 100 µM | Malme-3M > 100 µM | NCI-H23 > 100 µM

CC(C)(C)CC(C)(C)c1cc2c(O)c(c1)Cc1cc(C(C)(C)CC(C)(C)C)cc(c1O)Cc1cc(C(C)(C)CC(C)(C)C)cc(c1O)Cc1cc(C(C)(C)CC(C)(C)C)cc(c1O)Cc1cc(C(C)(C)CC(C)(C)C)cc(c1O)Cc1cc(C(C)(C)CC(C)(C)C)cc(c1O)C2
inactive: UACC-257 > 100 µM | SK-MEL-5 > 100 µM | UACC-62 > 100 µM | IGROV-1 > 100 µM | 786-0 > 100 µM | NCI-H522 > 100 µM | OVCAR-8 > 100 µM | OVCAR-3 > 100 µM | HL-60 > 100 µM | ACHN > 100 µM | Malme-3M > 100 µM | OVCAR-4 > 100 µM | NCI-H23 > 100 µM

O=c1cc2n(c(=O)[nH]1)C1OC(C(O)C1O)[C@@H]2CCO (some centres undefined)
inactive: UACC-257 > 100 µM | SR > 100 µM | NCI-H226 > 10 µM | SK-MEL-5 > 100 µM | UACC-62 > 100 µM | IGROV-1 > 100 µM | 786-0 > 100 µM | NCI-H522 > 100 µM | OVCAR-8 > 100 µM | HL-60 > 100 µM | ACHN > 100 µM | Malme-3M > 100 µM | OVCAR-4 > 100 µM | CAKI-1 > 100 µM | NCI-H23 > 100 µM

COC(=O)C1CC2(CC3=C1CCCC3)OCCO2 (centres undefined)
inactive: UACC-257 > 100 µM | SK-MEL-5 > 100 µM | UACC-62 > 100 µM | IGROV-1 > 100 µM | 786-0 > 100 µM | NCI-H522 > 100 µM | OVCAR-8 > 100 µM | OVCAR-3 > 100 µM | HL-60 > 100 µM | Malme-3M > 100 µM | OVCAR-4 > 100 µM | CAKI-1 > 100 µM | NCI-H23 > 100 µM

COc1cc(CC(=O)O)c([N+](=O)[O-])cc1OC
inactive: UACC-257 > 100 µM | NCI-H226 > 100 µM | UACC-62 > 100 µM | IGROV-1 > 100 µM | 786-0 > 100 µM | NCI-H522 > 100 µM | OVCAR-8 > 100 µM | OVCAR-3 > 100 µM | HL-60 > 100 µM | ACHN > 100 µM | Malme-3M > 100 µM | OVCAR-4 > 100 µM | CAKI-1 > 100 µM | NCI-H23 > 100 µM

CCOC(=O)c1ccc(N2C(=O)/C(=C\OC)c3ccccc3C2=O)cc1
inactive: UACC-257 38.5 µM | SR 30.3 µM | NCI-H226 54 µM | SK-MEL-5 70.8 µM | UACC-62 23.2 µM | IGROV-1 25.2 µM | 786-0 27.2 µM | NCI-H522 29 µM | OVCAR-8 20 µM | OVCAR-3 36.6 µM | ACHN 42.4 µM | Malme-3M 18.7 µM | OVCAR-4 43.6 µM | CAKI-1 33.4 µM | NCI-H23 37.2 µM
